From patent US20170247326A1, “Substituted Pyrrolidine Carboxamide Compounds” (EPIZYME, INC., priority 2014, published 2017)

molecular target: T1, SMYD2 (Homo sapiens, UniProt Q9NRG4); assay: SMYD2 biochemical assay (3H-SAM, biotinylated peptide substrate, Flashplate); conditions: Table 1; average of n = 1 to n = 50; read-out: SMYD2 Biochem IC50
T1 construct: Full length SMYD2 (NP_064582.2) was cloned; His6 (N, cleaved yes); FLAG (N); made in house; host or cells: Sf9 insect cells
In short: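 Full-length His/FLAG-tagged SMYD2 (tag removed, Sf9-expressed) at 1.5 nM was preincubated with compound for 30 min at room temperature in Bicine pH 7.6 buffer with 2% DMSO. Reaction used 10 nM 3H-SAM and 60 nM biotinylated peptide, stopped with 600 uM cold SAM. Streptavidin-captured 3H-peptide counted; IC50 from 3- or 4-parameter fit.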

T1 sequence (Q9NRG4 whole entry): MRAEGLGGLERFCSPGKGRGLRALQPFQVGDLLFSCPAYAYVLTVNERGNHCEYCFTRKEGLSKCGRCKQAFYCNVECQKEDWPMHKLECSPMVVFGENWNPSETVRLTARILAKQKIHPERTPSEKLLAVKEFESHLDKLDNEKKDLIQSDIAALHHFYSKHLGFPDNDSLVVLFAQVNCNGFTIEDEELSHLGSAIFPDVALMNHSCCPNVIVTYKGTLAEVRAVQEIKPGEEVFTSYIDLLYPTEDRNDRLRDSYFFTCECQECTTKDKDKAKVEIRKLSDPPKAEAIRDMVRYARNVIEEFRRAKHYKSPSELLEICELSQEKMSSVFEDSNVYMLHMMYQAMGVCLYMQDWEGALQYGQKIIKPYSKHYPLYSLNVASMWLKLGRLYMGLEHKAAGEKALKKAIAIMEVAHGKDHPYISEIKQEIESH

| IC50 [µM] | Compound |
| --- | --- |
| 7.1 | CCc1cc(C(=O)N[C@@H]2CN(C3CC3)C[C@@H]2C)ns1 (racemic) [compound 12, (±)-cis-N-(1-cyclopropyl-4-methylpyrrolidin-3-yl)-5-ethylisothiazole-3-carboxamide] |
| 1.4 | C[C@H]1CN(C2CC2)C[C@H]1NC(=O)c1cn(C2CC2)nn1 (racemic) [compound 19, (±)-cis-1-cyclopropyl-N-(1-cyclopropyl-4-methylpyrrolidin-3-yl)-1H-1,2,3-triazole-4-carboxamide] |
| > 50 | C[C@@H]1CN(C2CC2)C[C@H]1NC(=O)c1cc(O)nn1C (racemic) [compound 15, (±)-trans-H-(1-cyclopropyl-4-methylpyrrolidin-3-yl)-3-hydroxy-1-methyl-1H-pyrazole-5-carboxamide] |
| > 50 | C[C@H]1CN(C2CC2)C[C@H]1NC(=O)c1ccc2[nH]c(=O)[nH]c2c1 (racemic) [compound 23, (±)-cis-N-(1-cyclopropyl-4-methylpyrrolidin-3-yl)-2-oxo-2,3-dihydro-1H-benzo[d]imidazole-5-carboxamide] |
| > 50 | C[C@H]1CN(C2CC2)C[C@@H]1NC(=O)c1ccc(N2CCCC2)cc1 (racemic) [compound 20, (±)-trans-N-(1-cyclopropyl-4-methylpyrrolidin-3-yl)-4-(pyrrolidin-1-yl)benzamide] |
| > 50 | CC1Oc2ccc(C(=O)N[C@@H]3CN(C4CC4)C[C@@H]3C)cc2NC1=O (mixture of isomers) [compound 8, (±)-cis-N-(1-cyclopropyl-4-methylpyrrolidin-3-yl)-2-methyl-3-oxo-3,4-dihydro-2H-benzo[b][1,4]oxazine-6-carboxamide] |

same assay, conditions: Table 3; average of n = 1 to n = 50; read-out: SMYD2 Biochem IC50

| Compound | IC50 [µM] |
| --- | --- |
| CC(C)N1C[C@H](C)[C@H](NC(=O)c2cc(C3CC3)cnn2)C1 (stereo in doubt) [compound 98, rel-5-cyclopropyl-N-[(3S,4S)-4-methyl-1-(propan-2-yl)pyrrolidin-3-yl]pyridazine-3-carboxamide] | 2.09 |
| CC(C)N1C[C@H](C)[C@H](NC(=O)c2nc(C3CC3)no2)C1 (racemic) [compound 81, (±)-cis-3-cyclopropyl-N-[4-methyl-1-(propan-2-yl)pyrrolidin-3-yl]-1,2,4-oxadiazole-5-carboxamide] | > 50 |
| CC(C)N1C[C@@H](C)[C@@H](NC(=O)c2cn(C3CC3)cn2)C1 (stereo in doubt) [compound 121, (±)-cis-1-cyclopropyl-N-(1-isopropyl-4-methylpyrrolidin-3-yl)-1H-imidazole-4-carboxamide] | 2.2 |
| CC(C)N1CC(NC(=O)c2cc(C3CC3)cnn2)CC1C (centres unmarked) [compound 120, 5-cyclopropyl-N-(1-isopropyl-5-methylpyrrolidin-3-yl)pyridazine-3-carboxamide] | 11.5 |
| CC(=O)N[C@@H]1CN(C(C)C)C[C@@H]1C (racemic) [compound 40, (±)-cis-N-[4-methyl-1-(propan-2-yl)pyrrolidin-3-yl]acetamide] | > 50 |
| CC(C)N1C[C@@H](C)[C@H](NC(=O)c2c[nH]c(C3CC3)n2)C1 (racemic) [compound 71, (±)-trans-2-cyclopropyl-N-[4-methyl-1-(propan-2-yl)pyrrolidin-3-yl]-1H-imidazole-4-carboxamide] | > 50 |
| CC(C)N1C[C@H](C)[C@H](NC(=O)c2noc(C3CC3)n2)C1 (racemic) [compound 38, (±)-cis-5-cyclopropyl-N-[4-methyl-1-(propan-2-yl)pyrrolidin-3-yl]-1,2,4-oxadiazole-3-carboxamide] | > 50 |
| CC(C)N1C[C@@H](C)[C@H](NC(=O)c2nc(C3CC3)cs2)C1 (racemic) [compound 36, (±)-trans-4-cyclopropyl-N-[4-methyl-1-(propan-2-yl)pyirolidin-3-yl]-1,3-thiazole-2-carboxamide] | > 50 |
| CC(C)N1C[C@H](C)[C@H](NC(=O)c2coc(C3CC3)n2)C1 (racemic) [compound 63, (±)-cis-2-cyclopropyl-N-[4-methyl-1-(propan-2-yl)pyrrolidin-3-yl]-1,3-oxazole-4-carboxamide] | > 50 |
| CC(C)N1C[C@@H](C)[C@@H](NC(=O)c2cnn(C(C)C)c2)C1 (racemic) [compound 46, (±)-cis-N-[4-methyl-1-(propan-2-yl)pyrrolidin-3-yl]-1-(propan-2-yl)-1H-pyrazole-4-carboxamide] | > 50 |
| C[C@H]1CN(Cc2ccc(OCc3ccccc3)cc2)C[C@H]1NC(=O)c1cn(C2CC2)nn1 (stereo in doubt) [compound 106, (±)-cis-N-(1-{[4-(benzyloxy)phenyl]methyl}-4-methylpyrrolidin-3-yl)-1-cyclopropyl-1H-1,2,3-triazole-4-carboxamide] | 0.46 |
| C[C@@H]1CN(Cc2ccc(OCc3ccccc3)cc2)C[C@H]1NC(=O)c1cn(C2CC2)nn1 (racemic) [compound 97, (±)-trans-N-(1-{[4-(benzyloxy)phenyl]methyl}-4-methylpyrrolidin-3-yl)-1-cyclopropyl-1H-1,2,3-triazole-4-carboxamide] | 10.5 |
| C[C@@H]1CN(Cc2ccc(OCc3ccccc3)cc2)C[C@@H]1NC(=O)c1cc(C2CC2)cnn1 (racemic) [compound 104, (±)-cis-N-(1-{[4-(benzyloxy)phenyl]methyl}-4-methylpyrrolidin-3-yl)-5-cyclopropylpyridazine-3-carboxamide] | 0.0917 |
| CC(C)N1C[C@H](C)[C@H](NC(=O)c2ncc(C3CC3)[nH]2)C1 (racemic) [compound 79, (±)-cis-5-cyclopropyl-N-[4-methyl-1-(propan-2-yl)pyrrolidin-3-yl]-1H-imidazole-2-carboxamide] | 1.96 |
| CC(C)N1C[C@H](NC(=O)c2cnn(C(C)C)c2)[C@@H](C)C1 (racemic) [compound 47, (±)-trans-N-[4-methyl-1-(propan-2-yl)pyrrolidin-3-yl]-1-(propan-2-yl)-1H-pyrazole-4-carboxamide] | > 50 |
| CC(C)N1C[C@@H](C)[C@H](NC(=O)c2ccn(C(C)C)n2)C1 (racemic) [compound 45, (±)-trans-N-[4-methyl-1-(propan-2-yl)pyrrolidin-3-yl]-1-(propan-2-yl)-1H-pyrazole-3-carboxamide] | > 50 |
| CC(C)N1C[C@@H](C)[C@H](NC(=O)c2cc(C3CC3)cnn2)C1 (racemic) [compound 111, (±)-trans-5-cyclopropyl-N-[4-methyl-1-(propan-2-yl)pyrrolidin-3-yl]pyridazine-3-carboxamide] | 12 |
| CC(C)N1CCC(NC(=O)c2cc(C3CC3)cnn2)C1 (centres unmarked) [compound 95, 5-cyclopropyl-N-[1-(propan-2-yl)pyrrolidin-3-yl]pyridazine-3-carboxamide] | 6.07 |
| CC(C)N1C[C@H](C)[C@H](NC(=O)c2ncc(C3CC3)o2)C1 (racemic) [compound 76, (±)-cis-5-cyclopropyl-N-[4-methyl-1-(propan-2-yl)pyrrolidin-3-yl]-1,3-oxazole-2-carboxamide] | 6.77 |

Continued, values first:

| IC50 [µM] | Compound |
| --- | --- |
| > 50 | CC(C)N1C[C@@H](C)[C@H](NC(=O)c2cnnc(C3CC3)c2)C1 (racemic) [compound 65, (±)-trans-6-cyclopropyl-N-[4-methyl-1-(propan-2-yl)pyrrolidin-3-yl]pyridazine-4-carboxamide] |
| > 50 | CC(C)N1C[C@H](C)[C@H](NC(=O)c2cnnc(C3CC3)c2)C1 (racemic) [compound 64, (±)-cis-6-cyclopropyl-N-[4-methyl-1-(propan-2-yl)pyrrolidin-3-yl]pyridazine-4-carboxamide] |
| > 50 | CC(C)N1C[C@@H](C)[C@H](NC(=O)c2cncc(C3CC3)n2)C1 (racemic) [compound 43, (±)-trans-6-cyclopropyl-N-[4-methyl-1-(propan-2-yl)pyrrolidin-3-yl]pyrazine-2-carboxamide] |
| > 50 | CC(C)N1C[C@H](NC(=O)c2ccc3c(c2)NC(=O)CO3)[C@@H](C)C1 (racemic) [compound 37, (±)-trans-N-[4-methyl-1-(propan-2-yl)pyrrolidin-3-yl]-3-oxo-3,4-dihydro-2H-1,4-benzoxazine-6-carboxamide] |
| > 50 | CC(C)N1C[C@H](C)[C@H](NC(=O)c2cncc(C3CC3)c2)C1 (racemic) [compound 90, (±)-cis-5-cyclopropyl-N-[4-methyl-1-(propan-2-yl)pyrrolidin-3-yl]pyridine-3-carboxamide] |
| > 50 | CC(C)N1C[C@H](C)[C@H](NC(=O)c2cc(C3CC3)[nH]n2)C1 (racemic) [compound 61, (±)-cis-5-cyclopropyl-N-[4-methyl-1-(propan-2-yl)pyrrolidin-3-yl]-1H-pyrazole-3-carboxamide] |
| 0.611 | CCN1C[C@H](C)[C@H](NC(=O)c2cc(C3CC3)cnn2)C1 (racemic) [compound 100, (±)-cis-5-cyclopropyl-N-(1-ethyl-4-methylpyrrolidin-3-yl)pyridazine-3-carboxamide] |

same assay, conditions: Table 4; average of n = 1 to n = 50; read-out: SMYD2 Biochem IC50

| IC50 [µM] | Compound |
| --- | --- |
| 10.4 | CC(C)c1cnnc(C(=O)N[C@@H]2CN(C(C)C)C[C@@H]2C)c1 (racemic) [compound 124, rac-5-isopropyl-N-((3R,4R)-1-isopropyl-4-methylpyrrolidin-3-yl)pyridazine-3-carboxamide] |
| > 50 | C[C@H]1CN(S(=O)(=O)CCN)C[C@H]1NC(=O)c1cc(C2CC2)cnn1 (racemic) [compound 127, rac-N-((3R,4R)-1-((2-aminoethyl)sulfonyl)-4-methylpyrrolidin-3-yl)-5-cyclopropylpyridazine-3-carboxamide] |
| > 50 | C[C@H]1CN(S(=O)(=O)CCCN)C[C@H]1NC(=O)c1cc(C2CC2)cnn1 (racemic) [compound 126, rac-N-((3R,4R)-1-((3-aminopropyl)sulfonyl)-4-methylpyrrolidin-3-yl)-5-cyclopropylpyridazine-3-carboxamide] |
